3 compounds from EP1087941B9, “THIOLESTERS AND USES THEREOF” (THE UNITED STATES OF AMERICA, as represented by THE …, priority 1998, dated 1999) can be followed below.

Entries after “also recorded” stand apart in the source; their conditions may differ. Read-outs that look alike come from different tables or passages of the source. Some results are limits rather than exact numbers.

One assay concerns HIV-1RF. The assay can be described thus: XTT cytoprotection assay (antiviral activity). The format is cell-based.
The target of assay [1] is T1, recombinant HIV-1 reverse transcriptase (Human immunodeficiency virus type 1 group M subtype B, UniProt P03366).
T1 construct: using recombinant HIV-1 reverse transcriptase; S. Hughes, ABL Basic Research NCI-FCRDC, Frederick MD (supplied, not a catalogue product)
The assay can be described thus: Reverse transcriptase assay with rAdT and rCdG template/primer. The format is biochemical. To be noted: for IC50: Table 7, high dose test of 100 µM. As for the experimental part: The 5-bromovaleroyl thioester, compound 44, and two 5-pyridiniovaleroyl thioesters, compounds 45 and 47, were analyzed in mechanistic and target-based assays. […] Assays for activity against HIV-1 reverse transcriptase rAdT (template/primer) and rCdG (template/primer) using recombinant HIV-1 reverse transcriptase (S. Hughes, ABL Basic Research NCI-FCRDC, Frederick MD) were performed as described by Rice (1997) supra. Substrate cleavage of recombinant HIV-1 protease in the presence of test compounds using an HPLC-based methodology with the artificial substrate Ala-Ser-Glu-Asn-Try- Pro-Ile-Val-amide (Multiple Peptide Systems, San Diego CA) was performed as described by Rice (1997) supra. The ability of recombinant HIV-1 integrase (S. Hughes, ABL Basic Research NCI-FCRDC, Frederick MD) to carry out 3' processing and strand transfer activities in the presence of test compounds was performed as described by Buckheit (1994) AIDS Res. Hum. Retroviruses 10:1497-1506, and Turpin (1998) Antimicrob. Agents Chemother. 42: 487-494.

For assay [2], the target named is T2, Virion-associated NCp7 proteins from cell-free HIV-1MN (Human immunodeficiency virus type 1 group M subtype B, UniProt P05888).
T2 construct: an attack on the mature NCp7 retroviral zinc fingers in the cell-free virus; endogenous in cells
The assay can be described thus: Intravirion NCp7 cross-linking, non-reducing Western blotting. On the procedure: The interaction of zinc finger inhibitors, such as the thiolesters of the invention, with cell-free virus can result in modification of intravirion NCp7 protein and loss of infectivity. Virion-associated NCp7 proteins from cell-free HIV-1MN were treated with thiolester compounds 44 and 45. They were also evaluated by non-reducing Western blotting using HIV-1 NCp7-specific antibodies. […] Cross-linking by compound 45 was due to formation of intermolecular disulfide bonds because reduction with 2-mercaptoethanol (β-ME) completely reversed the gel retardation.
Virion cross linking was performed as described by Rice (1995) Science 270:1194-1197 and Turpin (1997) Antiviral Chem. Chemother. 8:60-67. Briefly, highly purified HIV-1 MN (11.8 µg total protein) was incubated for 2 hour with concentrations of compound. Virions were concentrated and residual compound was removed by centrifugation (18,000 x g, 1 h, 4°C). The viral pellet was solubilized in 0.5 M Tris-HCl,(pH 6.8), 50% glycerol, 8% SDS and 0.4% bromophenol blue and proteins resolved by Western blotting. Western blotting to detect the expression of HIV-1 proteins in U1 cells or virus pellets for virion cross-linking experiments was carried out as described by Turpin (1996) J. Virol. 70:6180-6189. Briefly, 50 µg of total cellular protein for U1 experiments or the total virion pellet (11.8 µg total viral protein) for NCp7 cross linking studies was resolved on 4 to 20% polyacrylamide gels in SDS with Tris-Glycine (Novex, San Diego CA). Samples for reduced gels were boiled for 5 min in the presence of 5% β-ME prior to loading. Resolved proteins were electroblotted on to polyvinylidene difluoride (PVDF) membranes, and HIV-1 specific proteins were detected using a mixture of goat anti- HIV-1 NCp7 and p24 or anti-NCp7 for virion proteins alone (a kind gift of L. E. Henderson, AIDS Vaccine Program NCI-FCRDC, Frederick, MD). Western blots were developed using standard chemiluminescence methodologies, as produced and described by Dupont-NEN, Wilmington, DE.
Purified concentrated retrovirus and antisera against the purified NC protein of the virus can be used to test the ability of a specific compound to penetrate the virus and react with the NC protein by forming disulfide complexes in the core of the virus. Compound are mixed with the whole retrovirus under reaction conditions appropriate for the compound. The virus is then removed from the reagent by centrifugation and disrupted in, e.g., standard SDS-PAGE sample buffer with (reduced) and without (non-reduced) 2-mercaptoethanol. […] Thus, compounds of interest (i.e., those which cause cross-linking), including the thiolesters of the invention, reduce the amount of monomeric zinc finger protein detected.
On the technique in general: Immunoblotting shows a protein as a band on a membrane.

Where [3] appears, read: Human immunodeficiency virus 1, Table 5, XTT cytoprotection assay, read-out: Antiviral Activity EC50.
[4] abbreviates: Human immunodeficiency virus 1, Table 6, XTT cytoprotection assay, read-out: Antiviral Activity EC50%.
The mark [5] stands for this setting: rAdT template/primer, read-out: Reverse transcriptase rAdT I50.
Where [6] appears, read: rCdG template/primer, read-out: Reverse transcriptase rCdG I50.

In the case of `CC(=O)NS(=O)(=O)c1ccc(NC(=O)c2ccccc2SC(=O)CCCCBr)cc1` [Compound 44, N-[2-(5-bromovaleroylthio)benzoyl]sulfacetamide], the EC50 with HIV-1RF (setting [3]) worked out at 3.8 µM; in the assay with HIV-1RF (setting [4]) it was 38 µM. The “inhibition of HIV-1 reverse transcriptase enzyme activity” value (shortened to “inhibition”) in assay [1] is reported as “did not inhibit”. Moreover, the IC50 in assay [1] (setting [5]) and in assay [1] (setting [6]) was > 100 µM throughout. The “intravirion NCp7 cross-linking” value in assay [2] is on record as “very poor cross-linking agent”.

As to `CC(=O)NS(=O)(=O)c1ccc(NC(=O)c2ccccc2SC(=O)CCCC[n+]2ccccc2)cc1` [Compound 45, N-[2-(5-pyridinio-valeroylthio)benzoyl]sulfacetamide bromide], the EC50 is < 10 µM in the assay on HIV-1RF (Human immunodeficiency virus 1, read-out: EC50 (concentration inhibiting 50% virus replication)); 6.2 µM in the assay on HIV-1RF (setting [3]); 6.2 µM with HIV-1RF (setting [4]). For the same compound, in assay [1], the “inhibition” value is listed as “did not inhibit”. Moreover, the IC50 in assay [1] (setting [5]) and in assay [1] (setting [6]) was > 100 µM each time. In assay [2], the “intravirion NCp7 cross-linking” value is given as “extensive cross-linking of NCp7; also recorded: strong cross-linker of intravirion NCp7”.

Regarding `O=C(CCCC[n+]1ccccc1)Sc1ccccc1C(=O)Nc1ccc(S(=O)(=O)c2ccc([N+](=O)[O-])cc2)cc1` [Compound 47], in the assay on HIV-1RF (Human immunodeficiency virus 1, read-out: Antiviral Activity EC50%), the EC50 amounted to 5.5 µM. The “inhibition” value in assay [1] was “did not inhibit”. The “intravirion NCp7 cross-linking” value in assay [2] is “did not effectively initiate NCp7 cross-linking”.
